Where a name gives a salt, the structure may show the parent alone.
Experiments:
[1] = system: Prevotella sp. (anaerobe); experiment: microbe, parasite or virus in culture; format: cell-based
[2] = Photostability study (ICH-Q1B); format: physicochemical; conditions: ICH-Q1B illumination
[3] = system: Clostridium difficile (anaerobe); experiment: microbe, parasite or virus in culture; format: cell-based
Serratia marcescens = experiment: microbe, parasite or virus in culture; format: cell-based
Enterococcus faecalis = experiment: microbe, parasite or virus in culture; format: cell-based
[4] = system: Proteus mirabilis, vulgaris; experiment: microbe, parasite or virus in culture; format: cell-based
Hemophilus influenzae = experiment: microbe, parasite or virus in culture; format: cell-based
[5] = system: Coagulase-negatives Staphylococcus; experiment: microbe, parasite or virus in culture; format: cell-based
Pseudomonas aeruginosa = experiment: microbe, parasite or virus in culture; format: cell-based
Burkholderia mallei = experiment: microbe, parasite or virus in culture; format: cell-based
[6] = system: Klebsiella oxytoca, aerogenes; experiment: microbe, parasite or virus in culture; format: cell-based
Enterobacter cloacae = experiment: microbe, parasite or virus in culture; format: cell-based
Enterobacter aerogenes = experiment: microbe, parasite or virus in culture; format: cell-based
[7] = system: Burkholderia cepacia species; experiment: microbe, parasite or virus in culture; format: cell-based
[8] = system: Ureaplasma species (atypical); experiment: microbe, parasite or virus in culture; format: cell-based
[9] = system: Burkholderia pseudomallei; experiment: microbe, parasite or virus in culture; format: cell-based
Yersinia pestis = experiment: microbe, parasite or virus in culture; format: cell-based
Campylobacter sp. = experiment: microbe, parasite or virus in culture; format: cell-based
[10] = pH solution stability study; format: physicochemical
Description: The weighed quantity of compound of Formula (I) formate salt was added to each buffers system and dissolved. Volume make up was performed with WFI. The 5 mL of sample was filled in 5 mL USP Type I Vials. Vials were stopped and sealed. These vials were kept at 25° C. for stability study. The blank buffers/placebo samples were also placed along with active samples.

Escherichia coli = experiment: microbe, parasite or virus in culture; format: cell-based
Salmonella species = experiment: microbe, parasite or virus in culture; format: cell-based
[11] = Solubility enhancement trials; format: physicochemical
Description: All observations were recorded once the solution temperature reached to 25° C.-30° C.

Moraxella catarrhalis = experiment: microbe, parasite or virus in culture; format: cell-based
Acinetobacter baumannii = experiment: microbe, parasite or virus in culture; format: cell-based
Legionella pneumophila = experiment: microbe, parasite or virus in culture; format: cell-based
[12] = Burkholderia cepacia species clinical isolates, N 75
[13] = Legionella pneumophila clinical isolates, N 35

With Cn1c(=O)ccc2ccc(F)c(CCNC[C@H]3CN(c4cnc5c(n4)NC(=O)CO5)C(=O)O3)c21 [compound of Formula (I) formate salt, (S)-6-(5-(((2-(7-fluoro-1-methyl-2-oxo-1,2-dihydroquinolin-8-yl)ethyl)amino)methyl)-2-oxooxazolidin-3-yl)-2H-pyrazino[2,3-b][1,4]oxazin-3(4H)-one formate] the “MIC Range, high end” value [1] was 1 µg/mL, the “MIC Range, low end” value [1] was no more than 0.015 µg/mL and the MIC50 ([1]; Prevotella) was no more than 0.015 µg/mL. For the same compound, the MIC90 ([1]; Prevotella) was no more than 0.015 µg/mL, the sensitivity to light [2] was “sensitive to light” and the “MIC Range, high end” value [3] was 0.06 µg/mL. For the same compound, the “MIC Range, low end” value [3] was less than 0.015 µg/mL, the MIC50 ([3]; Clostridioides difficile) was less than 0.015 µg/mL and the MIC90 ([3]; Clostridioides difficile) was 0.03 µg/mL. For the same compound, the “MIC Range, high end” value (Serratia marcescens) was 32 µg/mL, the “MIC Range, low end” value (Serratia marcescens) was 0.03 µg/mL and the MIC50 (Serratia marcescens; Serratia marcescens) was 0.25 µg/mL. The MIC90 (Serratia marcescens; Serratia marcescens) was 1 µg/mL, the “MIC Range, high end” value (Enterococcus faecalis) was 0.25 µg/mL and the “MIC Range, low end” value (Enterococcus faecalis) was less than 0.015 µg/mL. For the same compound, the MIC50 (Enterococcus faecalis; Enterococcus faecalis) was 0.03 µg/mL, the MIC90 (Enterococcus faecalis; Enterococcus faecalis) was 0.06 µg/mL and the “MIC Range, high end” value [4] was 2 µg/mL. For the same compound, the “MIC Range, low end” value [4] was 0.03 µg/mL, the MIC50 ([4]; Proteus mirabilis) was 0.12 µg/mL and the MIC90 ([4]; Proteus mirabilis) was 0.5 µg/mL. For the same compound, the “MIC Range, high end” value (Hemophilus influenzae) was no more than 0.015 µg/mL, the “MIC Range, low end” value (Hemophilus influenzae) was no more than 0.015 µg/mL and the MIC50 (Hemophilus influenzae; Haemophilus influenzae) was no more than 0.015 µg/mL. The MIC90 (Hemophilus influenzae; Haemophilus influenzae) was no more than 0.015 µg/mL, the “MIC Range, high end” value [5] was 0.03 µg/mL and the “MIC Range, low end” value [5] was less than 0.015 µg/mL. For the same compound, the MIC50 ([5]; Staphylococcus) was less than 0.015 µg/mL, the MIC90 ([5]; Staphylococcus) was less than 0.015 µg/mL and the “MIC Range, high end” value (Pseudomonas aeruginosa) was 8 µg/mL. For the same compound, the “MIC Range, low end” value (Pseudomonas aeruginosa) was less than 0.015 µg/mL, the MIC50 (Pseudomonas aeruginosa; Pseudomonas aeruginosa) was 0.5 µg/mL and the MIC90 (Pseudomonas aeruginosa; Pseudomonas aeruginosa) was 1 µg/mL. For the same compound, the MIC50 (Burkholderia mallei) was 0.25 µg/mL, the MIC90 (Burkholderia mallei) was 1 µg/mL and the “MIC Range, high end” value (Burkholderia mallei; N 36 strains) was 4 µg/mL. For the same compound, the “MIC Range, low end” value (Burkholderia mallei; N 36 strains) was no more than 0.015 µg/mL, the “MIC Range, high end” value [6] was 4 µg/mL and the “MIC Range, low end” value [6] was 0.06 µg/mL. For the same compound, the MIC50 ([6]; Klebsiella oxytoca) was 0.25 µg/mL, the MIC90 ([6]; Klebsiella oxytoca) was 0.5 µg/mL and the “MIC Range, high end” value (Enterobacter cloacae) was 32 µg/mL. For the same compound, the “MIC Range, low end” value (Enterobacter cloacae) was no more than 0.015 µg/mL, the MIC50 (Enterobacter cloacae; Enterobacter cloacae) was 0.25 µg/mL and the MIC90 (Enterobacter cloacae; Enterobacter cloacae) was 1 µg/mL. The “MIC Range, high end” value (Enterobacter aerogenes) was 0.25 µg/mL, the “MIC Range, low end” value (Enterobacter aerogenes) was 0.25 µg/mL and the MIC50 (Enterobacter aerogenes; Klebsiella aerogenes) was 0.25 µg/mL. It also gave an MIC90 (Enterobacter aerogenes; Klebsiella aerogenes) of 0.25 µg/mL, an MIC50 ([7]; Burkholderia cepacia) of 0.06 µg/mL and an MIC90 ([7]; Burkholderia cepacia) of 0.5 µg/mL. For the same compound, the “MIC Range, high end” value [7, 12] was 2 µg/mL, the “MIC Range, low end” value [7, 12] was 0.03 µg/mL and the “MIC Range, high end” value [8] was 0.03 µg/mL. The “MIC Range, low end” value [8] was no more than 0.015 µg/mL, the MIC50 ([8]; Ureaplasma) was no more than 0.015 µg/mL and the MIC90 ([8]; Ureaplasma) was no more than 0.015 µg/mL. The “MIC Range, high end” value (Helicobacter pylori) was 0.5 µg/mL, the “MIC Range, low end” value (Helicobacter pylori) was no more than 0.015 µg/mL and the MIC50 [9] was 0.25 µg/mL. The MIC90 [9] was 0.5 µg/mL, the “MIC Range, high end” value ([9]; N 40 strains) was 4 µg/mL and the “MIC Range, low end” value ([9]; N 40 strains) was no more than 0.015 µg/mL. The MIC50 (Yersinia pestis) was no more than 0.015 µg/mL, the MIC90 (Yersinia pestis) was no more than 0.015 µg/mL and the “MIC Range, high end” value (Yersinia pestis; N 35 strains) was no more than 0.015 µg/mL. For the same compound, the “MIC Range, low end” value (Yersinia pestis; N 35 strains) was no more than 0.015 µg/mL, the “MIC Range, high end” value (Campylobacter sp.) was 0.03 µg/mL and the “MIC Range, low end” value (Campylobacter sp.) was no more than 0.015 µg/mL. For the same compound, the MIC50 (Campylobacter sp.; Campylobacter) was no more than 0.015 µg/mL, the MIC90 (Campylobacter sp.; Campylobacter) was no more than 0.015 µg/mL and the stability ([10]; acid pH (<5)) was “very stable”. The stability ([10]; liquid state (Solution/Suspension)) was “highly unstable”, the stability ([10]; neutral to alkaline pH range (pH 5.0 to 10.0)) was “unstable” and the solution stability upto ([10]; pH 3.0-pH 5.0) was no more than 24 h. For the same compound, the “MIC Range, high end” value (Escherichia coli) was 4 µg/mL, the “MIC Range, low end” value (Escherichia coli) was no more than 0.015 µg/mL and the MIC50 (Escherichia coli; Escherichia coli) was 0.12 µg/mL. For the same compound, the MIC90 (Escherichia coli; Escherichia coli) was 0.5 µg/mL, the “MIC Range, high end” value (Salmonella species) was 2 µg/mL and the “MIC Range, low end” value (Salmonella species) was 0.03 µg/mL. It also gave an MIC50 (Salmonella species; Salmonella) of 0.12 µg/mL, an MIC90 (Salmonella species; Salmonella) of 0.25 µg/mL and a pH ([11]; Sr. No. 2: 7.5% Citric acid solution) of 1.96. The pH ([11]; Sr. No. 6: 7.5% Citric acid + 20% HPβ-CD) was 1.94, the pH ([11]; Sr. No. 9: 10% Ascorbic acid + 1% PVP K-12 + 20% HPβ-CD) was 2.9 and the pH ([11]; Sr. No. 10: 5% Ascorbic acid + 2% PVP K-12 + 20% HPβ-CD) was 3.19. It also gave a pH ([11]; Sr. No. 11: 7.5% Ascorbic acid + 2% PVP K-12 + 20% HPβ-CD) of 3.08, a pH ([11]; Sr. No. 12: 7.5% Ascorbic acid + 1% PVP K-12 + 20% HPβ-CD) of 3.07 and a pH ([11]; Sr. No. 13: 5% Ascorbic acid + […] Lactic acid + 1% PVP K-12 + 20% HPβ-CD) of 2.88. The pH ([11]; Sr. No. 14: 5% Ascorbic acid + 1% PVP K-12 + 30% HPβ-CD) was 3.25, the pH ([11]; Sr. No. 15: 7.5% Ascorbic acid + 1% PVP K-12 + 30% HPβ-CD) was 3.15 and the pH ([11]; Sr. No. 17: 10% Ascorbic acid + 1% PVP K-12 + 30% HPβ-CD) was 3.03. For the same compound, the pH ([11]; Sr. No. 18: 7% Ascorbic acid + […] Acetic acid + 1% PVP K-12 + 30% HPβ-CD) was 3.06, the pH ([11]; Sr. No. 19: 7% Ascorbic acid + 0.9% Glycine + 30% HPβ-CD) was 3.25 and the pH ([11]; Sr. No. 20: 7% Ascorbic acid + […] Acetic acid + 0.9% Glycine + 30% HPβ-CD) was 3.16. For the same compound, the pH ([11]; Sr. No. 21: 7% Ascorbic acid + […] lactic acid + 1% PVP K-12 + 30% HPβ-CD) was 2.91, the pH ([11]; Sr. No. 22: 6% Ascorbic acid + […] Acetic acid + […] lactic acid + 1% PVP K-12 + 30% HPβ-CD) was 2.84 and the pH ([11]; Sr. No. 23: Acetate Buffer (200 mM, pH 3.0) + 6% Ascorbic acid + […] lactic acid + 1% PVP K-12 + 30% HPβ-CD) was 2.78. The pH ([11]; Sr. No. 24: 5% Ascorbic acid + […] Acetic acid + […] lactic acid + 1% PVP K-12 + 30% HPβ-CD, pH adjusted by L-Arginine Solution) was 3.73, the “MIC Range, high end” value (Moraxella catarrhalis) was no more than 0.015 µg/mL and the “MIC Range, low end” value (Moraxella catarrhalis) was no more than 0.015 µg/mL. The MIC50 (Moraxella catarrhalis; Moraxella catarrhalis) was no more than 0.015 µg/mL, the MIC90 (Moraxella catarrhalis; Moraxella catarrhalis) was no more than 0.015 µg/mL and the “MIC Range, high end” value (Acinetobacter baumannii) was 4 µg/mL. For the same compound, the “MIC Range, low end” value (Acinetobacter baumannii) was 0.03 µg/mL, the MIC50 (Acinetobacter baumannii; Acinetobacter baumannii) was 0.25 µg/mL and the MIC90 (Acinetobacter baumannii; Acinetobacter baumannii) was 0.5 µg/mL. For the same compound, the MIC50 (Legionella pneumophila; Legionella pneumophila) was no more than 0.015 µg/mL, the MIC90 (Legionella pneumophila; Legionella pneumophila) was no more than 0.015 µg/mL and the “MIC Range, high end” value (Legionella pneumophila; [13]) was no more than 0.015 µg/mL. The “MIC Range, low end” value (Legionella pneumophila; [13]) was no more than 0.015 µg/mL.

Source: US20260027125A1, “AN ANTIBACTERIAL PARENTERAL FORMULATION AND METHODS THEREOF” (BUGWORKS RESEARCH INDIA PVT. LTD., priority 2022, published 2026)
